Data taken from article PMC6195508, “Studies on the metabolism and degradation of vancomycin in simulated in vitro and aquatic environment by UHPLC-Triple-TOF-MS/MS” (Scientific Reports, 2018).

Legend:
[1] = Degradation of vancomycin in pure water (pure water system); type: physicochemical; details: chemical stability in pure (Milli-Q) water; vancomycin 60 mg/L; 37 °C, constant temperature oscillator, sampled every 24 h for 10 days; one sample per time point; UHPLC-Triple-TOF-MS/MS, ESI+
Description: (§1) UHPLC-Triple-TOF-MS/MS analysis was performed on a Shimadzu LC-30A UHPLC system (Kyoto, Japan) consisting of an autosampler (SIL-30AC), a binary pump (LC-30AD) and a column oven (CTO-30A) connected to an AB SCIEX triple TOF 5600 MS/MS system (Redwood, USA) equipped with Duo-Spray ion source. The compound separation was conducted with a Poroshell 120 EC-C18 (2.1 × 150 mm, 2.7 μm, Agilent InfinityLab, USA) chromatographic column maintained at 40 °C. The mobile phases A (0.1% aqueous formic acid) and B (acetonitrile) were used to optimized the gradient elution program, which was operated at follows: 0–1 min, 5% B; 1–9 min, 5–10% B; 9–14 min, 10–45% B; 14–20 min, 45–90% B; 20–25 min, 90% B for washing the column; 25–25.1 min, 90–5% B; 25.1–30 min, 5% B for equilibrating the column. The constant flow rate was 0.4 mL/min, and the injection volume was 5 µL.
(§2) The full-scan MS spectra and MS/MS spectra data were obtained in positive electrospray ionization (ESI) mode by Analyst TF 1.6 software (AB Sciex, USA). Full scan mode was applied, the parent ions scan ranged from m/z 100 to 2000 Da with a 200 ms accumulation time and the product ions scan range from 100 to 1500 Da with a 70 ms accumulation time. Simultaneously, the calibration delivery system calibrated mass numbers by every five samples to acquire exact mass of ions. The running time of data independent acquisition (DIA) was 20 min. […]

[2] = Incubation of vancomycin in activated (experimental) and inactivated (control) rat liver microsomes; type: in vitro ADME; details: vancomycin 60 mg/L, 37 °C, UHPLC-Triple-TOF-MS/MS
Description: as §1, §2

[3] = Degradation of vancomycin in phosphate buffer saline (PBS system); type: physicochemical; details: chemical stability in phosphate buffer saline; vancomycin 60 mg/L; 37 °C, constant temperature oscillator, sampled every 24 h for 10 days; one sample per time point; UHPLC-Triple-TOF-MS/MS, ESI+
Description: as §1, §2

In the case of `CN[C@H](CC(C)C)C(=O)N[C@H]1C(=O)N[C@@H](CC(N)=O)C(=O)N[C@H]2C(=O)N[C@H]3C(=O)N[C@H](C(=O)N[C@H](C(=O)O)c4cc(O)cc(O)c4-c4cc3ccc4O)[C@H](O)c3ccc(c(Cl)c3)Oc3cc2cc(c3O[C@@H]2O[C@H](CO)[C@@H](O)[C@H](O)[C@H]2O[C@H]2C[C@](C)(N)[C@H](O)[C@H](C)O2)Oc2ccc(cc2Cl)[C@H]1O` [vancomycin, Vancomycin], the “time to 50% loss of vancomycin in water” value [1] is reported as “over 10 days”, the half-life at 60 mg/L ([2]; male, Sprague-Dawley rat liver microsomes 1 mg/mL protein (activated with 1 mmol/L NADPH, or inactivated), PBS, MgCl2 3.3 mmol/L, constant temperature oscillator, pre-heated 5 min, sampled every 24 h for 10 days, one sample per time point, ESI+, read-out: time to 50% loss of vancomycin in rat liver microsomes (converted)) is reported as roughly 6 days and the “metabolism by liver microsomal cytochrome P450 enzymes (activated versus inactivated microsomes)” value ([2]; similar degradation rate in activated (NADPH 1 mmol/L) and inactivated rat liver microsomes, 1 mg/mL protein) is reported as “not metabolized in the liver”. The “time to 50% loss of vancomycin in PBS” value [3] was “approximately 9 days”.
